Measurements as given in PMC11940229, “How Plant Polyhydroxy Flavonoids Can Hinder the Metabolism of Cytochrome 3A4” (Biomedicines, 2025).
Values joined by “and” are separate entries in the source; they are usually repeats but may differ in a detail not shown here. Identical values can stand only once. Like-named read-outs stand apart in the source and are kept apart here. One block for each compound: values may come before it.

What was measured:
CYP3A4 [1] = molecular target: T1, CYP3A4 (Homo sapiens, UniProt P08684); experiment: Vivid CYP3A4 Red Screening Kit fluorimetric inhibition assay (BOMR substrate); assay type: biochemical; conditions: human
T1 construct: purchased ThermoFisher Scientific Cat. no; 2856
T1 sequence (P08684 whole entry): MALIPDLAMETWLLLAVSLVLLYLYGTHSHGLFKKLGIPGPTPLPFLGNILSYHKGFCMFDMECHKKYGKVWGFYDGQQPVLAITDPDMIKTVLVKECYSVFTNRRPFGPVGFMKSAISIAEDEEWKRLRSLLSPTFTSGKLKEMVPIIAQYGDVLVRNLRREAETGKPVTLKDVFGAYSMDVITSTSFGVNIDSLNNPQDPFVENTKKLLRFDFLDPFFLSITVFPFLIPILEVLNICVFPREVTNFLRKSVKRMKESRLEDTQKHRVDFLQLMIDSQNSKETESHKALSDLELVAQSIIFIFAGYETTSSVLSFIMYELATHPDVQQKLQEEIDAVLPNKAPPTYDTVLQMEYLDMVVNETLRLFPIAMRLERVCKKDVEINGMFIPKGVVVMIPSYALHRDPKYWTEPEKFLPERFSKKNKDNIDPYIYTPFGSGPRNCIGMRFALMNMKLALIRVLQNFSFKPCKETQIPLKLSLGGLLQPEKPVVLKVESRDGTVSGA
Method: (§1) Flavone, galangin, resokaempferol, myricetin, and gossypetin were purchased from Indofine Chemical Company, Inc. (Hillsborough, NJ, USA). Kaempferol and scutellarein were obtained from Extrasynthese (Genay, France). […] Fisetin was obtained from Biosynth (Staad, Switzerland). […] Dimethyl sulfoxide (DMSO) was obtained from VWR International (Radnor, PA, USA), and acetonitrile was obtained from Merck KGaA (Darmstadt, Germany). The effect on CYP3A4 catalytic performance was evaluated using the Vivid® CYP3A4 Screening Kit (ThermoFischer Scientific, Waltham, MA, USA), following the indications of the manufacturer. This kit assesses how tested compounds affect the rate of fluorescence increase caused by the breakdown of a resorufin-blocked dye substrate by the human CYP3A4 enzyme. The enzyme promoted the cleavage of substrate at two different bonds, both generating a red highly fluorescent dye, in order to minimize spectral interferences caused by other compounds in the reaction medium. […] This setup helped to further circumvent interference from highly fluorescent compounds like NADPH, which are excited at UV wavelengths. […] The last enzyme and its substrate work as NADPH regenerating system since it catalyzes its formation through NADP^+, added subsequently. […] The fluorescence measurements were performed every 30 s for 30 min in a microplate reader with plate shaking and temperature control, 29 °C (Cytation 5, BIO-TEK, Winooski, VT, USA). The percentage of inhibition was calculated based on the reaction initial rates measured from the constant slope values of the fluorescence–time charts. […] The statistical analysis comprised both comparisons by the Student’s t-test for mean % inhibition and one-way analysis of variance (ANOVA) for the comparison between concentrations on the IC50. […] Differences were significant for p < 0.05.

CYP3A4 [2] = conditions: HLM, cited from earlier work
CYP3A4 [3] = conditions: BCS, fluorescence, cited from earlier work
CYP3A4 [4] = conditions: RLM, HPLC, cited from earlier work
[5] = molecular target: T2, recombinant human CYP3A4 (Baculosomes) (Homo sapiens, UniProt P08684); experiment: Vivid CYP3A4 Red Screening Kit fluorimetric inhibition assay (BOMR substrate); assay type: biochemical; conditions: for IC50: Baculosomes, fluorescence, positive control KTZ, mean ± SEM; for Effect on CYP3A4 activity (in words): up to 50 µmol/L
T2 construct: purchased ThermoFisher Scientific Cat. no; 2856
T2 sequence (P08684 whole entry): as above
Method: as §1

CYP3A4 [6] = system: CYP3A4; design: method as in PMID 31756459; conditions: cited from earlier work
CYP3A4 [7] = conditions: substrate BOMCC, enzyme not given, positive control ERYT, fluorescence; cited from earlier work
[8] = recombinant enzyme, pH 8, CYP3A4 Inhibition (%) (50 µmol/L)
[9] = substrate TST, positive control KTZ, HPLC-UV
[10] = recombinant human CYP3A4 Baculosomes, pH 8, probe Vivid BOMR substrate, 50 µmol/L compound, BOMR substrate, mean ± SEM, negative = activation, read-out: CYP3A4 Inhibition (%) (50 µmol/L)

inhibition at 30 min, 50 µmol/L (CYP3A4 [1]; [8]): 23 ± 8%
Structure (SMILES): O=c1cc(-c2ccc(O)cc2)oc2cc(O)cc(O)c12 [Apigenin]

inhibition at 30 min, 50 µmol/L (CYP3A4 [1]; [8]): 28 ± 17%
Structure (SMILES): O=c1cc(-c2ccccc2)oc2cc(O)cc(O)c12 [Chrysin]

inhibition at 30 min, 50 µmol/L (CYP3A4 [1]; [10]): 4 ± 9%
Structure (SMILES): O=c1c(O)c(-c2ccccc2)oc2cc(O)cc(O)c12 [Galangin]

inhibition at 30 min, 50 µmol/L (CYP3A4 [1]; [8]): ≥ 50%
IC50 ([5]; IC50, BOMR substrate): 40 µM and 40.1 µM
Structure (SMILES): O=c1c(O)c(-c2ccc(O)c(O)c2)oc2c(O)c(O)cc(O)c12 [Gossypetin]

inhibition at 30 min, 50 µmol/L (CYP3A4 [1]; [10]): ≥ 50%
IC50 ([5]; BOMR substrate, read-out: IC50): 31 µM and 31.2 µM
Structure (SMILES): O=c1cc(-c2ccc(O)c(O)c2)oc2cc(O)cc(O)c12 [Luteolin]
IC50 (CYP3A4 [2]; [9]): 4.62 ± 1.26 µM
IC50 (CYP3A4 [2]; substrate TST, positive control KTZ, RP-HPLC): 6.8 µM
IC50 (CYP3A4 [7]): 57.1 ± 16.1 µM

inhibition at 30 min, 50 µmol/L (CYP3A4 [1]; [10]): 38 ± 11%
Structure (SMILES): O=c1c(O)c(-c2ccc(O)cc2O)oc2cc(O)cc(O)c12 [Morin]

inhibition at 30 min, 50 µmol/L (CYP3A4 [1]; [10]): 38 ± 7%
Structure (SMILES): O=c1c(O)c(-c2ccc(O)cc2)oc2cc(O)ccc12 [Resokaempferol]

The next lines start with the compound.

Structure (SMILES): O=c1cc(-c2ccccc2)oc2cc(O)c(O)c(O)c12 [Baicalein]
IC50 (CYP3A4 [2]; different substrates, fluorescence): 7.56 to 26.4 µM
IC50 (CYP3A4 [2]; [9]): 9.6 ± 1.18 µM
IC50 (CYP3A4 [3]; substrate BFC, positive control KTZ): 9.2 µM
IC50 (CYP3A4 [4]; substrate TST): 12 µM
IC50 ([5]; IC50, BOMR substrate): 15 ± 5 µM

Structure (SMILES): O=c1c(O)c(-c2ccc(O)c(O)c2)oc2cc(O)ccc12 [Fisetin]
inhibition at 30 min, 50 µmol/L (CYP3A4 [1]; [10]): 30 ± 13%

Structure (SMILES): O=c1cc(-c2ccccc2)oc2ccccc12 [Flavone]
Activation of CYP3A4 (CYP3A4 [6]): 94.65 ± 7.10%
inhibition at 30 min, 50 µmol/L (CYP3A4 [1]; [10]): -179 ± 73%
Effect on CYP3A4 activity (in words) [5]: could act as an activator of the enzyme

Structure (SMILES): O=c1c(O)c(-c2ccc(O)cc2)oc2c(O)c(O)cc(O)c12 [Herbacetin]
IC50 (CYP3A4 [2]; UPLC-MS/MS): < 10 µM
IC50 ([5]; BOMR substrate, read-out: IC50): 32 µM and 31.5 µM

Structure (SMILES): O=c1c(O)c(-c2ccc(O)cc2)oc2cc(O)cc(O)c12 [Kaempferol]
inhibition at 30 min, 50 µmol/L (CYP3A4 [1]; [10]): 24 ± 8%

Structure (SMILES): O=c1c(O)c(-c2cc(O)c(O)c(O)c2)oc2cc(O)cc(O)c12 [Myricetin]
inhibition at 30 min, 50 µmol/L (CYP3A4 [1]; [8]): 32 ± 12%

Structure (SMILES): O=C1C[C@@H](c2ccc(O)cc2)Oc2cc(O)cc(O)c21 [Naringenin]
inhibition at 30 min, 50 µmol/L (CYP3A4 [1]; [10]): -11 ± 5%
Effect on CYP3A4 activity (in words) [5]: no inhibitory effect was noticed

Structure (SMILES): O=c1c(O)c(-c2ccc(O)c(O)c2)oc2cc(O)cc(O)c12 [Quercetin]
inhibition at 30 min, 50 µmol/L (CYP3A4 [1]; [10]): ≥ 50%

Structure (SMILES): O=c1cc(-c2ccc(O)cc2)oc2cc(O)c(O)c(O)c12 [Scutellarein]
IC50 ([5]; BOMR substrate, read-out: IC50): 19 µM and 19.1 µM
